Measurements from patent US4652646A, “Thiazolo[3,2-a][1,2,3]triazolo[4,5-d]pyrimidine and [1,3,4]thiadiazolo[3,2-a][1,2,3]triazolo[4,5-d]pyrimidine derivatives” (Daiichi Seiyaku Co., Ltd., priority 1984, dated 1987).

Experiments:
[1] = system: passive cutaneous anaphylaxis (PCA) reaction; test: Passive cutaneous anaphylaxis (PCA) test; assay type: in vivo, Sprague-Dowley male rats; details: 0.5 h; rat PCA; 20 mg/kg in 0.5% CMC, oral, 30 minutes before antigen challenge
Protocol: (§1) 1 mg of egg albumin dissolved in 0.2 ml of saline was intramuscularly administered to each of Sprague-Dawley male rats weighing 300 to 350 g (Charles River Japan Inc.), and then 1 ml of a suspension of sterilized Bordetella pertussis (2×10^10 cells) in saline was administered intraperitoneally to the rats. After 14 days, blood was drawn from the rats to obtain an antiserum.
In this test, the antiserum described in Test Example 1 was used after it was diluted with saline so as to provide a blue spot having a diameter of about 10 mm in the following control group.
Sprague-Dowley male rats weighing about 180 g (5 rats per group) were sensitized by injecting 0.05 ml of the diluted antiserum into the shaved dorsal skin. 48 hours later, the animals were challenged with 1 ml of saline containing 5 mg of egg albumin and 5 mg of Evans blue dye administered via a tail vein. 30 minutes later, the rats were sacrificed by decapitation. The dorsal skin was removed, and the long and short axis of the each wheal was measured.
In this test, the test compound was administered as follows. 20 mg of a test compound was suspended in a 0.5% CMC aqueous solution, and the suspension was administered to each of the rats in an amount of 20 mg/kg 30 minutes before the antigen challenge. For a control group, only a 0.5% CMC solution was administered.
The inhibitory activity on the PCA reaction in the treated group was calculated by the following formula: [formula] wherein: a represents a mean value of blue spot area in the control group.
b represents a mean value of blue spot area in the treated group.

[2] = Acute oral toxicity (LD50) in rats; details: rat, in vivo, oral administration
[3] = system: release of histamine induced by passive peritoneal anaphylaxis (PPA) reaction; test: Passive Peritoneal Anaphylaxis (PPA) test: inhibition of histamine release; assay type: in vivo, Sprague-Dawley male rats; details: ip, 5 min; rat PPA; 1 mg/kg intraperitoneally 30 seconds before egg albumin
Protocol: as §1
(§2) The test was conducted according to the method of Orange et al [Orange, R. P., Stechschulte, D. J., Austen, K. F., J. Immunol., 105, pp1087-1095 (1970)]. Sprague-Dawley male rats weighing 250 to 400 g (5 rats per group) were passively sensitized by administering 5 ml of 5-fold dilution antiserum (prepared by diluting the above antiserum with saline). 2 hours later, 5 ml of an egg albumin solution prepared by dissolving 2 mg of egg albumin in phosphate buffered saline containing 0.9 mM of calcium chloride was administered intraperitoneally to the rats. After 5 minutes, the rats were sacrificed by decapitation, and peritoneal fluid was pooled and centrifuged at 300×G at 4° C. for 10 minutes. Then, amounts of SRS-A and histamine in the supernatant were determined.
The quantitative determination of histamine was carried out according to the method of Shore et al [Shore, P. A., Bunkhalter, A. H., Cohn, V. H., J. Pharmacol. Exp. Ther., 127, pp182-186 (1959)], and the total released amount of histamine per rat (μg/rat) was calculated.
(§3) In this test, the test compound of this invention was administered as follows. 2 mg of a test compound was dissolved in 10 ml of phosphate buffered saline containing 0.9 mM of calcium chloride, an equimolar amount of sodium hydroxide to test compound, 2% of dimethyl sulfoxide and 2% of ethanol, and the solution was administered intraperitoneally to the rats at a dose of 1 mg/kg 30 seconds before the injection of egg albumin for inducing PPA. For a control group, the same solution without test compound and sodium hydroxide was administered.
(§4) The inhibitory activity on release of histamine and SRS-A by the PPA reaction in the treated group was calculated by the following formula: [formula] wherein: a represents a mean value of released amount in the control group.
(§5) b represents a mean value of released amount in the treated group.
(§6) c represents a mean value of spontaneously released amount.

[4] = system: release of SRS-A induced by passive peritoneal anaphylaxis (PPA) reaction; test: Passive Peritoneal Anaphylaxis (PPA) test: inhibition of SRS-A release; assay type: in vivo, Sprague-Dawley male rats; details: ip, 5 min; rat PPA; 1 mg/kg intraperitoneally 30 seconds before egg albumin
Protocol: as §1, §2
The quantitative determination of SRS-A was carried out according to the method of Stechschulte et al [Stechschulte, D. J., Auste, K. F., Bloch, K. J., J. Exp. Med., 125, pp127-147 (1967)] using a guinea pig ileum specimen in the presence of mepyramine and atropine. The amount of SRS-A was expressed in terms of unit, i.e., one unit of SRS-A activity was defined as the concentration required to produce a contraction of guinea pig ileum equal in amplitude to that produced by 5 ng of histamine, and the total released amount of SRS-A per rat (unit/rat) was calculated.
as §3, §4, §5, §6

| SMILES | inhibition in vivo at 20 mg/kg [1] [%] | LD50 [2] [mg/kg] | inhibition in vivo at 1 mg/kg [3] [%] | inhibition in vivo at 1 mg/kg [4] [%] |
| --- | --- | --- | --- | --- |
| COc1ccc(-c2cn3c(=O)c4[nH]nnc4nc3s2)cc1Cl [Example 73] | 48 |  |  |  |
| Cc1ccccc1CCc1nn2c(=O)c3[nH]nnc3nc2s1 [Example 48] |  | > 2000 |  |  |
| O=c1c2[nH]nnc2nc2sc(CCc3ccc(F)cc3)nn12 [Example 53] |  | > 2000 |  |  |
| CC1CCc2sc(-c3nn4c(=O)c5[nH]nnc5nc4s3)cc2C1 (centres unmarked) [Example 36] | 40 |  | 83 | 41 |
| CC(C)(C)c1ccc(-c2nn3c(=O)c4[nH]nnc4nc3s2)o1 [Example 20] |  | > 2000 |  |  |
| O=c1c2[nH]nnc2nc2sc(CCc3ccc(Cl)cc3)nn12 [Example 55] |  | > 2000 |  |  |
| O=c1c2[nH]nnc2nc2sc(Cc3ccccc3)nn12 [Example 42] | 48 | > 2000 | 99 | 54 |
| O=c1c2[nH]nnc2nc2sc(-c3ccc4c(c3)CCCC4)nn12 [Example 83] | 44 |  |  |  |
| CC(C)(C)c1ccc(-c2nn3c(=O)c4[nH]nnc4nc3s2)cc1 [Example 1, 6-(4-tert-Butylphenyl)-[1,3,4]thiadiazolo[3,2-a][1,2,3]triazolo[4,5-d]pyrimidin-9(1H)-one] | 46 | > 2000 | 83 | 64 |
| CC(C)(C)c1ccc(Cc2nn3c(=O)c4[nH]nnc4nc3s2)cc1 [Example 43] |  |  | 75 | 59 |
| O=c1c2[nH]nnc2nc2sc(-c3cccs3)cn12 [Example 75] | 32 |  |  |  |
| O=c1c2[nH]nnc2nc2sc(-c3cc4c(s3)CCCC4)nn12 [Example 35] | 45 |  | 88 | 45 |
| Cc1ccc(CCc2nn3c(=O)c4[nH]nnc4nc3s2)cc1 [Example 50] |  | > 2000 |  |  |
| Cc1ccc(-c2nn3c(=O)c4[nH]nnc4nc3s2)cc1 [Example 80, 6-(4-Methylphenyl)-[1,3,4]thiadiazolo[3,2-a][1,2,3]triazolo[4,5-d]pyrimidin-9(1H)-one monohydrate] | 31 |  | 91 | 42 |
| CC(C)c1ccc(-c2nn3c(=O)c4[nH]nnc4nc3s2)cc1 [Example 2] |  |  | 85 | 52 |
| COc1ccc(-c2nn3c(=O)c4[nH]nnc4nc3s2)cc1 [Example 3] |  |  | 93 | 42 |
| O=c1c2[nH]nnc2nc2sc(-c3ccccc3)nn12 [Example 47] | 38 | > 2000 |  |  |
| O=c1c2[nH]nnc2nc2sc(-c3cccc(F)c3)nn12 [Example 13] | 34 |  |  |  |
| O=c1c2[nH]nnc2nc2sc(-c3ccc(Cl)o3)nn12 [Example 21] | 35 | > 2000 |  |  |
| O=c1c2[nH]nnc2nc2sc(-c3ccco3)nn12 [Example 17] | 50 | > 2000 | 82 | 55 |
| CCc1ccc(-c2nn3c(=O)c4[nH]nnc4nc3s2)s1 [Example 27] |  |  | 81 | 63 |
| O=c1c2[nH]nnc2nc2sc(C3COc4ccccc4O3)nn12 (centres unmarked) [Example 41] |  |  | 91 | 62 |
| CC(C)(C)c1ccc(-c2nn3c(=O)c4[nH]nnc4nc3s2)s1 [Example 28] | 34 |  |  |  |
| O=c1c2[nH]nnc2nc2sc(COc3ccc(F)cc3)nn12 [Example 66] |  |  | 89 | 47 |

| SMILES | inhibition in vivo at 20 mg/kg [1] [%] | LD50 [2] [mg/kg] | inhibition in vivo at 1 mg/kg [3] [%] | inhibition in vivo at 1 mg/kg [4] [%] |
| --- | --- | --- | --- | --- |
| O=c1c2[nH]nnc2nc2sc(-c3ccc4c(c3)OCO4)nn12 [Example 12] | 36 |  | 87 | 52 |
| O=c1c2[nH]nnc2nc2sc(COc3ccccc3)nn12 [Example 64] | 33 |  |  |  |
| O=c1c2[nH]nnc2nc2sc(CCc3cccc(Cl)c3)nn12 [Example 54] |  | > 2000 |  |  |
| CC(C)(C)c1ccc(OCCc2nn3c(=O)c4[nH]nnc4nc3s2)cc1 [Example 69] | 34 |  |  |  |
| O=c1c2[nH]nnc2nc2sc(-c3ccc(Cl)s3)nn12 [Example 32] | 35 |  | 87 | 63 |
| CC(C)(C)c1cc(-c2nn3c(=O)c4[nH]nnc4nc3s2)cs1 [Example 29] | 39 |  |  |  |
| O=c1c2[nH]nnc2nc2sc(C3COc4ccccc4C3)nn12 (centres unmarked) [Example 39] | 38 |  |  |  |
| O=c1c2[nH]nnc2nc2sc(-c3cc4c(s3)CCC4)nn12 [Example 33] | 47 |  | 82 | 70 |
| O=c1c2[nH]nnc2nc2sc(-c3cccs3)nn12 [Example 23] | 31 | > 2000 | 84 | 51 |
| COc1cccc(-c2nn3c(=O)c4[nH]nnc4nc3s2)c1OC [Example 11] | 32 |  | 89 | 66 |
| O=c1c2[nH]nnc2nc2sc(-c3ccc(C4CCCCC4)cc3)cn12 [Example 7] | 40 |  |  |  |
| O=c1c2[nH]nnc2nc2sc(C=Cc3ccccc3)nn12 [Example 62] |  |  | 94 | 55 |
| CCc1sc(-c2nn3c(=O)c4[nH]nnc4nc3s2)cc1C [Example 31] | 32 |  |  |  |
| O=c1c2[nH]nnc2nc2sc(-c3ccsc3)nn12 [Example 24] | 45 |  |  |  |
| CC(C)(C)c1ccc(-c2cn3c(=O)c4[nH]nnc4nc3s2)cc1 [Example 6] | 36 |  |  |  |
| O=c1c2[nH]nnc2nc2sc(CCc3ccccc3)nn12 [Example 9, 6-(2-Phenylethyl)-[1,3,4]thiadiazolo[3,2-a][1,2,3]triazolo[4,5-d]pyrimidin-9(1H)-one] | 52 | > 2000 | 80 | 50 |
| Cc1cccc(CCc2nn3c(=O)c4[nH]nnc4nc3s2)c1 [Example 49] |  | > 2000 |  |  |
| O=c1c2[nH]nnc2nc2sc(Cc3ccc(F)cc3)nn12 [Example 45] | 57 |  |  |  |
| COc1ccc(Cc2nn3c(=O)c4[nH]nnc4nc3s2)cc1 [Example 44] |  |  | 81 | 70 |
| O=c1c2[nH]nnc2nc2sc(CC(c3ccccc3)c3ccccc3)nn12 [Example 57] |  |  | 86 | 61 |
| CC(C)(C)c1cccc(-c2nn3c(=O)c4[nH]nnc4nc3s2)c1 [Example 82] |  |  | 82 | 52 |
| O=c1c2[nH]nnc2nc2sc(-c3ccccc3)cn12 [Example 8] |  |  | 83 | 37 |
| Cc1ccc(-c2nn3c(=O)c4[nH]nnc4nc3s2)o1 [Example 18] |  | > 2000 |  |  |
